Reference: patent publication US7238812B2, “Tricyclic triazolobenzazepine derivatives, process for producing the same, and antiallergic agents” (Meji Seika Kaisha, Ltd., priority 1997, dated 2007)

Tests used:
Format in all cases: in vivo
[1] = Oral absorption in dogs: plasma level by HPLC, AUC; details: equimolar amount, in 0.5% aqueous methylcellulose solution, area under plasma level vs time curve
Description: (§1) The compound of Synthesis Example 1, the compound of Example 7, and the compound of Example 20 were suspended or dissolved in a 0.5% aqueous methylcellulose solution. The resultant solutions were orally administered in an equimolar amount to dogs and rats. After the administration, the amount of each compound contained in plasma of each animal individual was quantitatively determined by HPLC. The absorption in each specimen was assayed by the area under a medicament level of plasma vs time curve (AUC). As a result, AUCs obtained by the compounds of Examples 7 and 20 as prodrugs were 3 to 4 times higher for the dog and 3 to 7 times higher for the rat compared with the compound of Synthesis Example 1 as an activator body.

[2] = Oral absorption in rats: plasma level by HPLC, AUC; details: equimolar amount, in 0.5% aqueous methylcellulose solution, area under plasma level vs time curve
Description: as §1

ICR male mice = ICR male mice (5 weeks old), dose of 2 g/kg, suspension in 0.5% aqueous methylcellulose solution
Source text: Acute Toxicity Test by Single Administration
The compound of Example 20 was homogeneously suspended in a 0.5% aqueous methylcellulose solution. The suspension was forcibly orally administered to ICR male mice (5 weeks old).

Row | SMILES | AUC Dog [1] [µM·h] | AUC Rat [2] [µM·h] | Survival and abnormality after single forced oral administration (ICR male mice)
1 | COc1cc2[nH]c(=O)c3nn(C(OC(=O)OC(C)C)C(C)C)nc3c(=O)c2cc1OC (stereo not shown) [Example 20, 2-(1-Isopropoxycarbonyloxy-2-methylpropyl)-7,8-dimethoxy-4(5H),10-dioxo-2H-1,2,3-triazolo[4,5-c][1]benzazepine] | 1.2 ± 0.3 | 1.4 ± 0.1 | all the mice survived and developed no abnormality
2 | COc1cc2[nH]c(=O)c3nn[nH]c3c(=O)c2cc1OC [Synthesis Example 1, 7,8-Dimethoxy-4(5H),10-dioxo-1H-1,2,3-triazolo[4,5-c][1]benzazepine, reference compound] | 0.3 ± 0.1 | 0.2 ± 0.1 | –
3 | COc1cc2[nH]c(=O)c3nn(COC(=O)OC(C)C)nc3c(=O)c2cc1OC [Example 7, 2-(Isopropoxycarbonyloxymethyl)-7,8-dimethoxy-4(5H),10-dioxo-2H-1,2,3-triazolo[4,5-c][1]benzazepine] | 0.9 ± 0.1 | 0.6 ± 0.1 | –
